Tests used:
[1] = Partition between octanol and aqueous buffer (Log D7.4); type: physicochemical; details: pH 7.4
Excerpt: (§1) The main reason for failure in drug development is poor biopharmaceutical properties, which include low aqueous solubility, chemical instability.
(§2) The biopharmaceutical properties of the synthesized M13 (5-glutathione-6-shogaol) were characterized.

[2] = Chemical stability at various pH / in acidic PBS (HPLC); type: physicochemical
Excerpt: as §1, §2

[3] = system: human colon cancer cells (HCT-116); details: cited from earlier work
NF-κB signaling pathway = test: NF-κB-dependent luciferase activity in NF-κB/293/GFP-Luc cells treated with TNF-α; type: cell-based
Method: First, the anti-inflammatory activity of MLY compounds on the NF-κB signaling pathway was examined using the NF-xB/293/GFP-LucTnl cell line (System Biosciences). This cell line is specifically designed for use in quantitatively monitoring (by luciferase intensity) transcriptional activation related to the NF-κB signal transduction pathway in vitro. Treatment of NF-κB/293/GFP-Luc™ cells with 10 ng/ml TNF-α for 18 hours induced strong activation of the NF-κB signal transduction pathway (FIGS. 8A and 8B). […] MLY2 and MLY8 induced a strongest 90% reduction of NF-κB activation the anti-inflammatory effect of MLY 2 and 8 was dose-related (FIG. 9). The dose to reduce the NF-κB activation by 50% was […] for M13, 5 μM for MLY2 and 11 μM for MLY8 (FIG. 9).

Vero cells = details: added one-hour post-infection setting
Method: Virus and formulations were then left on the cells for the entire duration of the experiment (24 hours). The cytotoxicity of the same range of concentrations of formulations was determined by MTT assay.
The antiviral plates were incubated for 1 hour at 37° C., 5% CO2. The cytotoxicity plates were incubated for 24 hours at 37° C., 5% CO2.
After 24 hours, the infection plates were washed with PBS, fixed for 30 minutes with 4% formaldehyde, washed again with PBS, and stored in PBS at 4° C. until staining. The cytotoxicity plate was treated with MTT to determine cell viability.
Cytotoxicity was detected by MTT assay. Briefly, the MTT reagent (Sigma, M5655) was added to the cells for 2 hours at 37° C., 5% CO2, after which the media was removed, and the precipitate solubilized with a mixture of 1:1 Isopropanol: DMSO for 20 minutes. The supernatant was transferred to a clean plate and signal was read at 570 nm.

RIPK4 = RIPK4 (Homo sapiens, UniProt P57078); test: Radiometric 33P kinase assay, 376 Wild Type Kinase Panel; type: biochemical; details: 20 μM M13, 10 μM ATP; read-out: inhibition of enzyme activity relative to control
Excerpt: (§3) It was hypothesized that M13 may target kinases to reduce the inflammatory response. Determination and improvement of the selectivity of a compound by screening a large part of the kinome are of pivotal importance in the discovery of M13 signaling pathways for its anti-inflammatory activities. Radiometric assays were used based on the transfer of ^33P-labeled phosphate from ATP to the kinase substrates found in the 376 Wild Type Kinase Panel and 17 Lipid Kinase Panel (Reaction Biology) and a broad kinase selectivity screen for the inhibitory activity of M13 was performed. Briefly, radiometric assays are based on the transfer of 10 μM ^33P-labelled phosphate from ATP to the kinase substrate. […] FIGS. 2A and 2B show the targeted inhibitor effects of M13 on lipid kinases (FIG. 2A) and protein kinases (FIG. 2B).

CDK6 = CDK6 (Homo sapiens, UniProt Q00534); test: as above; type: biochemical; details: 20 μM M13, 10 μM ATP; read-out: inhibition of enzyme activity relative to control
Excerpt: as §3

TRKB = TRKB (Homo sapiens, UniProt Q16620); test: as above; type: biochemical; details: 20 μM M13, 10 μM ATP; read-out: inhibition of enzyme activity relative to control
Excerpt: as §3

HCT-116 = test: MTT viability assay, 2D culture; type: cell-based, human
Method: (§4) PBMCs were provided by STEMCELL Technologies (STEMCELL Canada Inc.) and maintained in ImmunoCult™-XF T-cell Expansion Medium (Cat #10981). HIEC-6 cells were maintained in OptiMEM 1 Reduced Serum Medium supplemented with 20 mM HEPES, 10 mM GlutaMAX, 10 ng/mL Epidermal Growth Factor, 4% (v/v) fetal bovine serum (FBS), and 1% penicillin-streptomycin (PS). HCT-116 cells were maintained in ATCC-formulated McCoy's 5a medium, supplemented with 10% (v/v) FBS and 1% PS. Caco-2/BBe cells were grown in DMEM supplemented with 10% (v/v) FBS and 1% PS (v/v). Human colon cancer stem cells (HC-CSC) were maintained in complete growth media with serum and antibiotics (Cat #M36112-39S) from Celprogen Inc. (Torrance, CA, USA).
(§5) The […] (MTT) assay was used to study the effects of M13 on the viability of four 2D-cultured human intestinal cell lines (HIEC-6, HCT-116, Caco-2/BBe, and HC-CSC).

HC-CSC = test: MTT viability assay, 2D culture; type: cell-based, human
Method: as §4, §5

[4] = system: AOM/DSS-induced colon tumors; test: AOM/DSS-induced CAC mouse model, oral gavage; type: in vivo, C57BL/6J mice; details: 5 mg/kg oral, vs AOM/DSS group
Method: Female C57BL/6J mice (Strain #:000664, The Jackson Laboratory, Bar Harbor, ME), female interleukin-10 knock-out (IL10^−/− mice, B6.129P2-IL10 tmlCgn, The Jackson Laboratory), and female CD-1 mice (CD-1@IGS Mouse, outbred, Charles River) were housed in a clean facility maintained at 22±2° C. and 30-70% relative humidity with a 12-h light/dark cycle. The diet (ABDIET@PICOLAB®, PMI Nutrition International LLC, Arden Hills, MN, USA) and water were provided ad libitum. Mice experiments were performed following ARRIVE guidelines 2.0, with approval from the Georgia State University Institutional Animal Care and Use Committee (IACUC, Protocol #A20039).
An AOM/DSS-induced CAC mouse model (C57BL/6J) was used to test the anti-cancer effects of free M13, NL, and M13-NL. […] Healthy mice were used as the control group (WT group).
Histological assessments of the colon tissues from AOM/DSS-induced CAC mice were performed. […] Immunofluorescence (IF) staining of apoptotic cells (TUNEL) and immunohistochemical (IHC) staining of Ki-67 were used to investigate the pro-apoptotic and anti-proliferative effects of M13-NL in vivo.

[5] = system: 3D-cultured Caco-2/BBe cells; test: 3D droplet-based cell spheroid model, long-term cytotoxicity; details: Homo sapiens, Caco-2, 264 h, 11 days
Method: To assess the long-term cytotoxicity of M13 against cancer cells, a 3D droplet-based Caco-2/BBe cell spheroid model was established using 3D printing. The diameter of the 3D cell spheres was approximately 1.65-1.75 mm. The 3D-cultured cells were incubated with different concentrations of M13 for 11 days, and droplet size (calculated using scanned images) and viability (live/dead cell staining and intracellular ATP) were analyzed (FIG. 12C). […] The cell viability of the M13-treated spheres was normalized as a percentage of the negative control (NC, 100% viable, without M13 treatment).

Chain of TRKB (Q16620 32-822): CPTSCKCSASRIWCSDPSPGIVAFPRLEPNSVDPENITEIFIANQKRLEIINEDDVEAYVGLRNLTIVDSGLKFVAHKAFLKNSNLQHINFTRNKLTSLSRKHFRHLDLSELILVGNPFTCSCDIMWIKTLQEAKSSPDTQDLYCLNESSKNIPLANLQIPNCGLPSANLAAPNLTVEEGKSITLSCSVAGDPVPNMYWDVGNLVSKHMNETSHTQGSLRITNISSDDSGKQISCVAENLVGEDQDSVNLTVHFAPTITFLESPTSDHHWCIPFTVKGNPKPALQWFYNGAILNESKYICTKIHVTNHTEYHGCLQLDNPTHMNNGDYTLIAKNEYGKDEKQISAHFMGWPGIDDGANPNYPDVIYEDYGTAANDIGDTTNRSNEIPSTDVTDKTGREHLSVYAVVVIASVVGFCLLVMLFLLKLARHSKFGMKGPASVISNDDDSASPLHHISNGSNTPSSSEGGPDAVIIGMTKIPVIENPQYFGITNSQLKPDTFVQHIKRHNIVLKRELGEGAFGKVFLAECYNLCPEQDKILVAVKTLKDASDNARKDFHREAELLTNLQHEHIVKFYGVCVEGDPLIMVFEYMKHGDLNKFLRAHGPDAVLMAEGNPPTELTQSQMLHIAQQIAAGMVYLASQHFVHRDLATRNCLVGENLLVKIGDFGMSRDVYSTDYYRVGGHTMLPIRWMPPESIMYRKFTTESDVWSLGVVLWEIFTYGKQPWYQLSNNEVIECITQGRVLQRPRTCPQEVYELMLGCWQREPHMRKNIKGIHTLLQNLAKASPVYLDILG
Chain of CDK6 (Q00534 whole entry): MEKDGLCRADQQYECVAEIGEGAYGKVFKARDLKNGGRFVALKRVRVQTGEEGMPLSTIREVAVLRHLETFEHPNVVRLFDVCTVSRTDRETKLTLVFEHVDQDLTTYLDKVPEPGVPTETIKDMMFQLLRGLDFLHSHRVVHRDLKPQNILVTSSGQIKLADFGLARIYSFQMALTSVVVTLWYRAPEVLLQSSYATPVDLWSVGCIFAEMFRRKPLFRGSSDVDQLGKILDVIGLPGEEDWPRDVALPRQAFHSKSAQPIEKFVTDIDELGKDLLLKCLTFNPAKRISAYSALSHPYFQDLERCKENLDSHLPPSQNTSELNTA
Chain of RIPK4 (P57078 whole entry): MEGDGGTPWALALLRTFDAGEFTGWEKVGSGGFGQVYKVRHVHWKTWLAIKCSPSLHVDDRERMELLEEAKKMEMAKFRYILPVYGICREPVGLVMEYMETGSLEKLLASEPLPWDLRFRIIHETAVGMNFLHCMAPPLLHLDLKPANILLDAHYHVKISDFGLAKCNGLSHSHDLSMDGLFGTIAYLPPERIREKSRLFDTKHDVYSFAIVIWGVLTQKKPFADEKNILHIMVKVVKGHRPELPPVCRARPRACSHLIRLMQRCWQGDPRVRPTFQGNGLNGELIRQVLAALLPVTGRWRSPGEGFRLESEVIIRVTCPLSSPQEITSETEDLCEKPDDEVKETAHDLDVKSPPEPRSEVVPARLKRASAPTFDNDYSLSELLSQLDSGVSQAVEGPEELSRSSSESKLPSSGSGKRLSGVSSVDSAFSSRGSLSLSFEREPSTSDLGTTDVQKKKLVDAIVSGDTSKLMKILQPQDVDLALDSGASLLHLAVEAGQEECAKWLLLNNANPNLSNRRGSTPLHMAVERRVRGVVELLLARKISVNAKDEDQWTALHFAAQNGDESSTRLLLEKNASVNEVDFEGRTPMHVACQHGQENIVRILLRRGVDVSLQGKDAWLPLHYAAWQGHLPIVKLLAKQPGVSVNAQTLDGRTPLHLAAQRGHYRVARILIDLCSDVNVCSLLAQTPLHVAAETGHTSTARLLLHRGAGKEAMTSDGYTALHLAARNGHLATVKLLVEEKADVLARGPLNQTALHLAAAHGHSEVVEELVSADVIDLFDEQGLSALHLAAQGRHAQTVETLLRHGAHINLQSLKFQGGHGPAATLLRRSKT

CCCCCC(CC(=O)CCc1ccc(O)c(OC)c1)SCC(NC(=O)CCC(N)C(=O)O)C(=O)NCC(=O)O (stereo not shown) [M13, 5-glutathione-6-shogaol]
logD [1]: -1.75 | relative content of M13 before and after incubation (HPLC) ([2]; 37° C., 2 h, acidic PBS (pH=5.0 or 3.0)): consistent before and after incubation | stability at various pH levels ([2]; pH 2 to pH 10): very stable | bioactivity [3]: exhibited bioactivity | activity at 20 µM (NF-κB signaling pathway; M13 20 μM, TNF-α 10 ng/ml, 18 hours, read-out: RLU (% with TNFα)): 87.2 ± 8.29% | activity at 50 µM (NF-κB signaling pathway; M13 50 μM, TNF-α 10 ng/ml, 18 hours, read-out: RLU (% with TNFα)): 9.75 ± 2.78% | activity at 100 µM (NF-κB signaling pathway; M13 100 μM, TNF-α 10 ng/ml, 18 hours, read-out: RLU (% with TNFα)): 0.81 ± 0.22% | IC50 (NF-κB signaling pathway; read-out: dose to reduce the NF-κB activation by 50%): ~29 µM | toxicity (Vero cells): low toxicity | inhibition at 20 µM (RIPK4): 30 to 45% | inhibition at 20 µM (CDK6): 30 to 45% | inhibition at 20 µM (TRKB): 30 to 45% | fold by which IC50 against HIEC-6 is higher (HCT-116; HIEC-6 vs HCT-116): 2.5 fold | IC50 (HCT-116; Homo sapiens, HCT-116, 24 h incubation): 40.1 µM | fold by which IC50 against HIEC-6 is higher (HC-CSC; HIEC-6 vs HC-CSC): 5.8 fold | IC50 (HC-CSC; Homo sapiens, 24 h incubation): 17.4 µM | number of tumors [4]: failed to reduce the number of tumors | minimal effective concentration ([5]; read-out: M13 concentration at which green fluorescence intensity is significantly lower than NC, live/dead staining): > 80 µM | EC50 ([5]; ATP content, extrapolated dose-response curve, read-out: half-maximal effective concentration (EC50)): 182 µM

From patent US20260285903A1, “SYNTHESIZED BIOLOGICALLY ACTIVE COMPOUNDS AND METHODS OF MAKING AND USING” (Georgia State University Research Foundation, Inc., priority 2023, published 2026)
